In brackets after ≈: the same amount, converted by molar mass. Like-named read-outs stand apart in the source and are kept apart here.
Key:
L-1210 leukemic cells = assay: Anti-leukemic activity, inhibition of L-1210 growth; assay type: cell-based, mouse
Description: Anti-Leukemic Activity (Inhibition of L-1210 Growth)
Leukemic cells isolated from mice bearing the L-1210 tumor are cultured in vitro and their growth can be measured by counting the number of cells in the culture over a period of time. The incorporation of a test substance into the media will prevent the growth of the leukemic cells, an indication of an effective anti-leukemic agent.
I50 (concentration of drug inhibiting growth of L-1210) by % for the tested compounds was as follows:
To Measure Inhibition of Leukemic Cell (L-1210) Growth
Check to see that there is adequate cell growth in the stock cultures. Use cells 48-72 hours after transfers are done.
Weigh out the drugs at 50 times the desired final concentration and made serial dilutions.
Make up the final medium using 500 mls McCoy's 5A medium, 15% fetal calf serum, 5 mls penicillin-streptomycin solution, and 5 mls antibiotic-antimycotic solution and let it stand at room temperature.
Using sterile technique, add 0.1 ml of the drug dilutions to each tube.
Add an appropriate quantity of cells to the prepared medium. After mixing, remove a 0.5 ml sample, place it in a vial containing […] of saline, and count it on the Coulter Counter. Multiply the count by 40 to compensate for the 40 fold dilution (0.5 ml into […] and record the inoculum.
Add 5 mls of cell suspension to each tube. Swirl the bottle every 4 tubes to insure a more uniform distribution of cells.
Tighten the caps and place in the CO2 incubator at 36°-38° for 96 hours.
After 96 hours remove the tubes from the incubator and count the contents of each on the Coulter Counter. Multiply all counts by 40 and average the four counts for each drug dilution. If the count is less than the inoculum, record 100% inhibition. If the count is greater than the average of the eight control counts, record 0% inhibition. For all other counts use the following formula: [formula] 100%-% servival=inhibition of growth due to treatment.

spleen cells = assay: In vitro treatment of Con A stimulated mouse spleen cells; assay type: cell-based; details: for ability to augment Con A stimulation (in words): compound 1 μg/ml, Con A 5 μg/ml
Description: The following day, each group was sacrificed and the spleens removed and pooled. […] The cell concentration of each preparation was determined by a Coulter counter and adjusted to 5×10^6 cells/ml with RPMI medium.
Microtiter assays were carried out in 0.2 ml incubations, containing 5×10^5 cells and Con A or Con A and compounds at the indicated concentrations. All assays were performed with 6 replicates and compared with a blank assay containing only cells. The assay plates were incubated at 37° in 5% CO2 for 4 days. During the final 18-20 hours of incubation, 0.5 ml of ^3 HTdR (10 μCi/ml, 6 Ci /m mole) were added to each culture. The cultures were harvested with a multiple automatic sample harvester (MASH) unit and the incorporated ^3 HTdR determined with a Beckman LS 8000 liquid scintillation counter, as a measure of cell proliferation.

[1] = Phase solubility study with DIP.PAcBA; assay type: physicochemical; details: constant pH
Excerpt: This is indicative of an interaction occuring in solution to yield a complex.

[2] = tested on: Influenza A Swine 1976 (Hlsw -N1); assay type: cell-based; details: A/Swine/76 (Hlsw N1)
A/Texas/77 (H3 N2) = assay: Inhibition of influenza virus replication, A/Texas/77; assay type: cell-based, influenza virus A/Texas/77
A/Dunedin/73 (H3 N2) = assay: Inhibition of influenza virus replication, A/Dunedin/73; assay type: cell-based, influenza virus A/Dunedin/73
A/Jap/305 (H2 N2) = assay: Inhibition of influenza virus replication, A/Jap/305; assay type: cell-based, influenza virus A/Jap/305
A/PR8 (H0 N1) = assay: Inhibition of influenza virus replication, A/PR8; assay type: cell-based
A2 Hong Kong (H2 N2) = assay: Inhibition of influenza virus replication, A2 Hong Kong; assay type: cell-based

CCCCCC[C@H]([C@H](C)O)n1cnc2c(=O)[nH]cnc21 (relative stereo) [NPT 15392, ERYTHRO-9-(2-HYDROXY-3-NONYL)HYPOXANTHINE]
IC50 (L-1210 leukemic cells; Mus musculus, L1210, tissue culture, read-out: 50% inhibition of L-1210 cells): 28 µg/mL (≈ 101 µM) | fold induction at 1 µg/mL (spleen cells; Mus musculus, 96 h, Con A 5 μg/l as printed, compound 1 μg/ml in vitro, read-out: stimulation over Con A alone): 2.8 | ability to augment Con A stimulation (in words) (spleen cells): marked ability to augment the Con A stimulation | solubility with DIP.PAcBA (phase solubility) [1]: increased solubility at increasing concentrations of DIP.PAcBA

CCCCCC[C@H]([C@H](C)O)n1cnc2c(=O)[nH]cnc21 (relative stereo) [NPT 15410]
Inhibition of influenza virus replication ([2]; 1.0-10.0 μg/ml): ++ (30-50% Inhibition) | Inhibition of influenza virus replication ([2]; 10.0-100 μg/ml): ++++ (>70% Inhibition) | Inhibition of influenza virus replication ([2]; .01-1.0 μg/ml): +++ (50-70% Inhibition) | Inhibition of influenza virus replication ([2]; >100 μg/ml): ++++ (>70% Inhibition) | Inhibition of influenza virus replication (A/Texas/77 (H3 N2); A/Texas/77, 1.0-10.0 μg/ml): + (20-30% Inhibition) | Inhibition of influenza virus replication (A/Texas/77 (H3 N2); A/Texas/77, 10.0-100 μg/ml): ++++ (>70% Inhibition) | Inhibition of influenza virus replication (A/Texas/77 (H3 N2); A/Texas/77, .01-1.0 μg/ml): ++ (30-50% Inhibition) | Inhibition of influenza virus replication (A/Texas/77 (H3 N2); A/Texas/77, >100 μg/ml): ++++ (>70% Inhibition) | Inhibition of influenza virus replication (A/Dunedin/73 (H3 N2); A/Dunedin/73, 10.0-100 μg/ml): ± (10-20% Inhibition) | Inhibition of influenza virus replication (A/Dunedin/73 (H3 N2); A/Dunedin/73, >100 μg/ml): ++ (30-50% Inhibition) | Inhibition of influenza virus replication (A/Jap/305 (H2 N2); A/Jap/305, 10.0-100 μg/ml): ++++ (>70% Inhibition) | Inhibition of influenza virus replication (A/Jap/305 (H2 N2); A/Jap/305, >100 μg/ml): ++++ (>70% Inhibition) | Inhibition of influenza virus replication (A/PR8 (H0 N1); A/PR8, 1.0-10.0 μg/ml): ++ (30-50% Inhibition) | Inhibition of influenza virus replication (A/PR8 (H0 N1); A/PR8, 10.0-100 μg/ml): ++++ (>70% Inhibition) | Inhibition of influenza virus replication (A/PR8 (H0 N1); A/PR8, .01-1.0 μg/ml): ++ (30-50% Inhibition) | Inhibition of influenza virus replication (A/PR8 (H0 N1); A/PR8, >100 μg/ml): +++ (50-70% Inhibition) | Inhibition of influenza virus replication (A2 Hong Kong (H2 N2); 10.0-100 μg/ml): ++ (30-50% Inhibition) | Inhibition of influenza virus replication (A2 Hong Kong (H2 N2); >100 μg/ml): +++ (50-70% Inhibition) | I50 (concentration of drug inhibiting growth of L-1210) (L-1210 leukemic cells; 96 hours): 54 micrograms/ml | Potentiation Anti-Leukemia by DIP.PAcBA salt (L-1210 leukemic cells; salt compared with parent compound): Yes | 50% inhibition of L-1210 cells (L-1210 leukemic cells; tissue culture): 54 µg/mL | stimulation over Con A alone (spleen cells; Con A 5 μg/l as printed, compound 1 μg/ml in vitro, 5760 min): 3.3 fold | ability to augment Con A stimulation (in words) (spleen cells): marked ability to augment the Con A stimulation

— patent US4221794A, “Method of imparting immunomodulating and antiviral activity” (Newport Pharmaceuticals International, Inc., priority 1979, dated 1980)
